Experimental data: patent US20110028447A1, “INDAZOLE DERIVATIVES” (Pfizer Inc., priority 2008, published 2011)
Like-named read-outs stand apart in the source and are kept apart here.

Legend:
human CB1 receptor [1] = molecular target: T1, human CB1 receptor (Homo sapiens, UniProt P21554); experiment: [35S] GTPγS binding on membranes of CHO cells expressing the human CB1 receptor (agonism); type: biochemical; parameters: expressed in transfected cells; membrane preparation
Procedure: Membrane preparation: CHO cells expressing the human CB1 receptor were grown to 80% confluence in Ham's F-12 Nutrient Medium (Invitrogen) containing 10% fetal bovine serum (Invitrogen), 1% pen/strep (Invitogen), 1% Nonessential amino acids (Invitrogen) and 500 μg/ml G418 (Invitrogen). Cells were released from flasks using Cell Dissociation Buffer (Invitrogen). Cells were pelleted by centrifugation at 500×G for 5 minutes. Membranes were prepared by resuspending cells in ice cold Assay Buffer (25 mM Tris pH 7.4, 5 mM EDTA, 5 mM EGTA, Complete Protease Inhibitor (Roche)). Cells were lysed with 12 strokes of a dounce homogenizer. Unlysed cells were pelleted by centrifugation at 500×G for 5 minutes. Membranes were pelleted by centrifugation at 25,000×G for 30 minutes. Membranes were resuspended in TEE, dounced 12 strokes, and pelleted a second time at 25,000×G for 30 minutes. Membrane pellet was resuspended in 50 mM Tris pH 7.4, 100 mM NaCl, 3 mM MgCl2, 0.2 mM EGTA, Complete Protease Inhibitor (Roche). Protein concentration was determined using the Micro-BCA Protein Assay Kit (Pierce) using BSA as a standard. Membranes were frozen and stored at −80 degrees Celsius until use.
GTPγS Binding: 40 μl of test compound was incubated with 20 μl of [^35S] GTPγS (Perkin Elmer) (1250 Ci/millimole) and 140 μl of membrane homogenate (5 μg/well) in polypropylene 96-well plates (Corning). Final reaction conditions were 50 mM Tris pH 7.4, 100 mM NaCl, 3 mM MgCl2, 0.2 mM EGTA, 0.04% BSA. After incubation at 37 degrees Celsius for 45 minutes reactions were harvested by vacuum filtration through Unifilter GF/B-96 filters (Perkin Elmer) using a FilterMate Plate Harvester (Perkin Elmer). Filters were rinsed 4 times with ice cold 50 mM Tris pH 7.4, 3 mM MgCl2, 0.2 mM EGTA and dried at 50 degrees Celsius for at least 30 minutes. 40 μl of Microscint-20 (Perkin Elmer) was added per well, and plates were counted using a Top-Count Microplate Scintillation Counter (Perkin Elmer). Binding data were analyzed and EC50 values were calculated using Graph Pad Prism 4.0 Software.

human CB1 receptor [2] = molecular target: T1, human CB1 receptor; experiment: Human CB1 receptor binding, [3H] CP-55,940 displacement on HEK cell membranes; parameters: expressed in transfected cells; host or cells: HEK cells, doxycycline-induced; membrane preparation
Method in brief: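 Membranes from doxycycline-induced HEK cells expressing human CB1 incubated 60 min at room temperature with [3H] CP-55,940 (final […]) in 50 mM Tris pH 7.4, 100 mM NaCl, 3 mM MgCl2, 0.2 mM EGTA, 0.04% BSA. Nonspecific binding defined with 50 μM WIN-55,212-2; filtration and scintillation counting gave EC50 and Ki.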

[3] = GTPγS EC50, human CB1, CHO cell membranes
[4] = human CB1, CHO cell membranes, read-out: GTPγS EC50

T1 sequence (P21554 whole entry): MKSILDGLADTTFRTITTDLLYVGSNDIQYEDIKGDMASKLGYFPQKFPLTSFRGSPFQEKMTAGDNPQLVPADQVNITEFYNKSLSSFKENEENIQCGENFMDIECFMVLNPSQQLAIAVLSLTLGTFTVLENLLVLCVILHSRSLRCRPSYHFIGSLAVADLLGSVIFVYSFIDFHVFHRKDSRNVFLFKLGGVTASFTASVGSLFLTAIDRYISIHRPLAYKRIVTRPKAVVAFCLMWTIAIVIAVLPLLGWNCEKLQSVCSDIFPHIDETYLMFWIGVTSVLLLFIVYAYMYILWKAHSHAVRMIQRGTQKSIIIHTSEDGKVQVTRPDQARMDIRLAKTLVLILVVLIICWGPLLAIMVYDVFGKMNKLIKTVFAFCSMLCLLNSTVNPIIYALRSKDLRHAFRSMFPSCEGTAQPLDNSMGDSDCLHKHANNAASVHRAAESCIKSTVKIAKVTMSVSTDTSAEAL

SMILES	EC50 (human CB1 receptor [1]; [3]) [nM]	Ki (human CB1 receptor [2]; CB1 Ki) [nM]	EC50 (human CB1 receptor [1]; [4]) [nM]	Ki (human CB1 receptor [2]; read-out: CB1 Ki) [nM]
CC(C)(C)[C@H](NC(=O)c1nn(Cc2ccc(C#N)cc2)c2c(F)cccc12)C(=O)N[C@@H]1CNC(=O)C1 [Example 457]	108	1.77	–	–
CC(C)(C)[C@H](NC(=O)c1nn(Cc2ccc(C#N)cc2)c2c(F)cccc12)C(=O)NC1CC1 [Example 108]	27	3.78	–	–
CC(C)(C)[C@H](NC(=O)c1nn(Cc2ccc(F)cc2)c2ccccc12)C(=O)NCCn1ccccc1=O [Example 502]	–	–	36.9	17.3
CC(C)(C)[C@H](NC(=O)c1nn(Cc2ccc(F)cc2)c2c(Cl)cccc12)C(=O)NCCNS(=O)(=O)C1CC1 [Example 187]	–	–	1.09	0.09
CC(C)(C)[C@H](NC(=O)c1nn(Cc2ccc(F)cc2)c2ccccc12)C(=O)N1CCN(C(=O)CCC(N)=O)CC1 [Example 228]	–	–	15.1	4.26
CC(C)(C)[C@H](NC(=O)c1nn(Cc2ccc(F)cc2)c2ccccc12)C(=O)NCCOc1ccccn1 [Example 478]	–	–	23.7	21.3
CC(C)(C)[C@H](NC(=O)c1nn(Cc2ccc(F)cc2)c2c(F)c(F)ccc12)C(=O)NCCO [Example 324]	2.6	0.15	–	–
CC(C)(C)[C@H](NC(=O)c1nn(Cc2ccccc2)c2ccccc12)C(=O)NC[C@H](O)CO [Example 73]	217	22.9	–	–
CC(C)(C)[C@H](NC(=O)c1nn(Cc2ccc(F)cc2)c2c(F)c(F)ccc12)C(=O)NC[C@@H](O)CO [Example 322]	109	8.89	–	–
CC(C)(C)[C@H](NC(=O)c1nn(Cc2ccc(F)cc2)c2ccccc12)C(=O)NCc1nc(-c2ccccn2)no1 [Example 424]	–	–	10.2	1.28
CC(C)(C)[C@H](NC(=O)c1nn(Cc2ccc(F)cc2)c2ccccc12)C(=O)N1CCOCC1 [Example 242]	3.37	0.36	–	–
CC(C)(C)C(NC(=O)c1nn(Cc2ccc(C#N)cc2F)c2ccccc12)C(=O)NCC(O)CO (stereo not shown) [Example 89]	539	63.4	–	–
CC(C)(C)[C@H](NC(=O)c1nn(Cc2ccc(F)cc2)c2ccccc12)C(=O)N[C@@H](CO)C(N)=O [Example 230]	31.4	6.5	–	–
CC(C)(C)[C@H](NC(=O)c1nn(Cc2ccc(C#N)cc2)c2ccccc12)C(=O)NCCNS(=O)(=O)C1CC1 [Example 97]	–	–	16.7	1.04
CC(C)(C)C(NC(=O)c1nn(Cc2ccc(F)cc2)c2ccccc12)C(=O)NCc1noc(C(N)=O)n1 (stereo not shown) [Example 137]	–	–	1.69	0.69
CC(C)(C)[C@H](NC(=O)c1nn(Cc2ccc(F)cc2)c2ccccc12)C(=O)N1CCC(F)(F)C1 [Example 331]	9.9	2.2	–	–
CC(C)(C)C(NC(=O)c1nn(Cc2ccc(F)cc2)c2ccc(F)cc12)C(=O)NCCO (stereo not shown) [Example 172]	0.42	0.42	–	–
CC(C)(C)[C@H](NC(=O)c1nn(Cc2ccc(F)cc2)c2ccccc12)C(=O)N1CCOC(CO)C1 (stereo partly shown) [Example 249]	16.3	2.51	–	–
CC(C)(C)C(NC(=O)c1nn(Cc2ccc(F)cc2)c2c(F)cccc12)C(=O)NCC(N)=O (stereo not shown) [Example 179]	5.41	0.87	–	–
CC(C)(C)[C@H](NC(=O)c1nn(Cc2ccc(F)cc2)c2ccccc12)C(=O)NCCS(=O)(=O)N1CCOCC1 [Example 357]	–	–	48.6	2.93
CC(C)(C)C(NC(=O)c1nn(Cc2ccc(C#N)cc2)c2c(Cl)cccc12)C(=O)NCCNS(=O)(=O)C1CC1 (stereo not shown) [Example 202]	–	–	3.07	0.8
CC(C)(C)C(NC(=O)c1nn(Cc2ccc(C#N)cc2)c2c(Cl)cccc12)C(=O)NCC(O)CO (stereo not shown) [Example 203]	63.2	10.2	–	–
CC(C)(C)C(NC(=O)c1nn(Cc2ccc(F)cc2)c2ccc(F)cc12)C(=O)NCCCO (stereo not shown) [Example 174]	1.81	1.1	–	–
CC(C)(C)[C@H](NC(=O)c1nn(Cc2ccc(F)cc2)c2ccccc12)C(=O)NC[C@H](O)CN1CCOCC1 [Example 504]	–	–	132	21.3

SMILES	EC50 (human CB1 receptor [1]; [3]) [nM]	Ki (human CB1 receptor [2]; CB1 Ki) [nM]	EC50 (human CB1 receptor [1]; [4]) [nM]	Ki (human CB1 receptor [2]; read-out: CB1 Ki) [nM]
CC(C)(C)[C@H](NC(=O)c1nn(Cc2ccc(C#N)cc2F)c2c(F)cccc12)C(N)=O [Example 368]	4.55	2	–	–
CC(C)C(NC(=O)c1nn(Cc2cccc(F)c2)c2ccccc12)C(N)=O (stereo not shown) [Example 20]	216	51.1	–	–
CCNC(=O)OC1CCN(C(=O)[C@@H](NC(=O)c2nn(Cc3ccc(F)cc3)c3ccccc23)C(C)(C)C)CC1 [Example 303]	–	–	11	2.27
CC(C)(C)[C@H](NC(=O)c1nn(Cc2ccc(F)cc2)c2ccccc12)C(=O)NCC1CCOCC1 [Example 211]	18.3	3.08	–	–
CC(C)(O)C1CCN(C(=O)[C@@H](NC(=O)c2nn(Cc3ccc(F)cc3)c3ccccc23)C(C)(C)C)CC1 [Example 338]	–	–	24.9	3.43
CC(C)(C)[C@H](NC(=O)c1nn(Cc2ccc(F)cc2)c2ccccc12)C(=O)N1CCC(C(N)=O)CC1 [Example 225]	–	–	26.9	6.3
CC(C)(C)C(NC(=O)c1nn(Cc2ccc(C#N)cc2F)c2ccccc12)C(=O)NCC(O)CO (stereo not shown) [Example 90]	385	27.4	–	–
CC(C)(C)[C@H](NC(=O)c1nn(Cc2ccc(F)cc2)c2ccccc12)C(=O)N1CCC[C@H]1CO [Example 306]	1.39	0.78	–	–
CC(C)(C)[C@H](NC(=O)c1nn(Cc2ccc(C#N)cc2)c2c(F)cccc12)C(=O)NCCO [Example 10, 1-(4-cyanobenzyl)-7-fluoro-N-[(1S)-1-{[(2-hydroxyethyl)amino]carbonyl}-2,2-dimethylpropyl]-1H-indazole-3-carboxamide]	37.5	1.91	–	–
CC(C)(C)[C@H](NC(=O)c1nn(Cc2ccc(F)cc2)c2ccccc12)C(=O)N1CCC(CCO)CC1 [Example 224]	–	–	19.3	6.77
CC(C)(C)C(NC(=O)c1nn(Cc2ccc(C#N)cc2)c2c(Cl)cccc12)C(=O)NCCCO (stereo not shown) [Example 200]	35	4.8	–	–
CC(C)(C)[C@H](NC(=O)c1nn(Cc2ccc(F)cc2)c2ccccc12)C(=O)NCc1nc2n(n1)CCC2 [Example 415]	–	–	10.8	8.69
Cc1nc(CNC(=O)C(NC(=O)c2nn(Cc3ccc(F)cc3)c3ccccc23)C(C)(C)C)no1 (stereo not shown) [Example 131]	13.2	0.6	–	–
CC(C)(C)C(NC(=O)c1nn(Cc2ccccc2)c2ccccc12)C(=O)NCCNC(N)=O (stereo not shown) [Example 83]	720	15.3	–	–
CC(C)(C)[C@H](NC(=O)c1nn(Cc2ccc(F)cc2)c2ccccc12)C(=O)NCc1n[nH]c(-c2ccccc2)n1 [Example 414]	–	–	38.6	7.61
CCOC(=O)c1nc(CNC(=O)C(NC(=O)c2nn(Cc3ccc(C#N)cc3)c3ccccc23)C(C)(C)C)no1 (stereo not shown) [Example 136]	–	–	115	10.7
CC(C)(C)[C@H](NC(=O)c1nn(Cc2ccc(F)cc2)c2ccccc12)C(=O)NCC1CNC(=O)O1 (stereo partly shown) [Example 315]	8.67	2.91	–	–
CC(C)(C)[C@H](NC(=O)c1nn(Cc2ccccc2F)c2ccccc12)C(N)=O [Example 13]	11.9	0.73	–	–
CC(C)(C)[C@H](NC(=O)c1nn(Cc2ccc(F)cc2)c2ccccc12)C(=O)NC[C@H]1C[C@H]1CO [Example 492]	9.71	1.32	–	–
CC(C)(C)C(NC(=O)c1nn(Cc2ccccc2)c2cc(Br)ccc12)C(N)=O (stereo not shown) [Example 33]	0.92	0.24	–	–
CC(C)(C)[C@H](NC(=O)c1nn(Cc2ccc(F)cc2)c2ccccc12)C(=O)N1CC(CNS(=O)(=O)C2CC2)C1 [Example 345]	–	–	1.69	0.61
CC(C)(C)[C@H](NC(=O)c1nn(Cc2ccc(C#N)cc2)c2c(F)cccc12)C(=O)NC(CO)CO [Example 117]	168	9.54	–	–
CC(C)(C)[C@H](NC(=O)c1nn(Cc2ccc(F)cc2)c2ccccc12)C(=O)NCCNS(=O)(=O)C1CC1 [Example 99]	–	–	0.5	0.18
